The values that follow come from patent US9409880B2, “Modulators of TLR3/dsRNA complex and uses thereof” (The Regents of the University of Colorado, a body corporate, priority 2011, dated 2016).

One may read the IC50 as the concentration that gives 50% inhibition.

In one assay the target is T1, TLR3 (Mus musculus, UniProt Q99MB1).
T1 construct: endogenous in cells; host or cells: RAW 264.7
T1 sequence (Q99MB1 26-905): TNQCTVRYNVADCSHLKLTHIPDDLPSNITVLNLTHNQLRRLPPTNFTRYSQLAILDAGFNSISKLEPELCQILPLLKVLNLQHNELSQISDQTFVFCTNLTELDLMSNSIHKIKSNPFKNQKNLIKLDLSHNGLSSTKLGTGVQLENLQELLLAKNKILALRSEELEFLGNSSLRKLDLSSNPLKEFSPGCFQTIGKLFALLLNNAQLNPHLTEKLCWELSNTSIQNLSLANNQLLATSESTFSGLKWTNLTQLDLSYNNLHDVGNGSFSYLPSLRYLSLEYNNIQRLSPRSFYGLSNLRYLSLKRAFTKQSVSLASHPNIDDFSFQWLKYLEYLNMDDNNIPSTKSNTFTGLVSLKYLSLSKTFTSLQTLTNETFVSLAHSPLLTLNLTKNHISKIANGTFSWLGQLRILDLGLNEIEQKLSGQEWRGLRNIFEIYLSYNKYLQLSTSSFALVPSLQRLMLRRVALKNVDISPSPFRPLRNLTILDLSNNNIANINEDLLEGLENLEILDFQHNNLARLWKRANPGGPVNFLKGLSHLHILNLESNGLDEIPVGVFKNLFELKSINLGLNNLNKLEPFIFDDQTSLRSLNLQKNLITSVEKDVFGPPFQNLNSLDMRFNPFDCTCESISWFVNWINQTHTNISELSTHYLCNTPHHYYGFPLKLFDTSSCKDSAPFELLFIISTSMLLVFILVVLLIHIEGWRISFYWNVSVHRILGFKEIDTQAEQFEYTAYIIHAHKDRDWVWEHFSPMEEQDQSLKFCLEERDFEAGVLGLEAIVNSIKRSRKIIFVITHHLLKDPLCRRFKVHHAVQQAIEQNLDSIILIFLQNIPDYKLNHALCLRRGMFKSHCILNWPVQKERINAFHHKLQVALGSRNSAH
Kind of assay: In vitro TLR3 inhibition assay: Poly IC-induced NO production in RAW 264.7 cells. The following applies: 6a vs 4a. The class given is cell-based. From the text: The initial hits (Figure A) were first evaluated using the present inventors' previously established high-throughput cell assay of TLR3 activation. See, for example, ACS Med. Chem. Lett. 2010, 1, 194 and Bioorg. Med. Chem. Lett., 2010, 20, 5411. Poly IC (Polyriboinosinic:polyribocytidylic acid) has been reported to selectively activate TLR3 signaling, resulting in the activation of nitric oxide synthase and the production nitric oxide (NO) in RAW 264.7 macrophage cells. The NO level was monitored as an indicator of Poly IC-induced TLR3 activation to evaluate the drug's inhibitory activity.
RAW 264.7 (Mouse leukaemic monocyte macrophage cell line) cells were grown in RPMI 1640 medium, supplemented with 10% FBS, penicillin (100 U/mL) and streptomycin ([…]). RAW cells were then planted in 96-well plates at 100,000 cells per well and grown for 24 h in the media descried previously at 37° C. in a 5% CO2 humidified incubator. After 24 h, non-adherent cells and media were removed and replaced with fresh RPMI 1640 medium (only RPMI). The adherent macrophages were treated with high molecular weight polyinosine-polycytidylic acid (Poly IC) (10 μg/mL) (Invivogen), an agonist of TLR3, and then added different concentrates of potential inhibitor. Two rows were only treated with Poly IC as an control. Plates were then incubated for an additional 24 h. Following incubation 100 μL of media was removed and added to flat black 96-well microfluor plates (Thermo Scientific, MA, USA). To each well, 10 μL of 2,3-diaminonaphthalene (0.05 mg/mL in 0.62 M aqueous HCl solution) was added and incubated for 15 min in the dark. The reaction was quenched by addition of 5 μL of a 3 M aqueous NaOH solution and the plate was read on Beckman Coulter DTX880 reader (Beckman Coulter, Calif., USA) with excitation at 365 nm and emission at 450 nm. The nitrite (a stable metabolite of nitric oxide) concentration was determined from a nitrite standard curve. The inhibition rate (%) of NO release was determined using the following formula: Inhibition (%)=[Poly IC(OD450)−Compounds (OD450)]/[Poly IC(OD450)−Control (OD450)]×100. The IC50 values for both inhibition and cytotoxicity were determined graphically using software Origin v7.5.
In turn, `COc1ccc2c(Cl)c(C(=O)N[C@H](Cc3ccccc3)C(=O)O)sc2c1` [Compound 6a, (R)-2-(3-chloro-6-methoxybenzo[b]thiophene-2-carboxamido)-3-phenylpropanoic acid] had a decrease in potency of 10 fold.

The assay is the same for the next values; noted with them: Poly IC-induced TLR3 activation, cell assay.
`O=C(O)[C@@H](Cc1ccccc1)NS(=O)(=O)c1ccccc1F` [Compound T5260630, reference compound] had an IC50 of 145 ± 3.7 µM.

Staying with this assay, now noted: whole cell inhibitory activity; Poly IC-induced NO, RAW 264.7; average ± SD, at least three independent tests.
Compound `O=C(N[C@H](Cc1ccccc1)C(=O)O)c1sc2cc(F)c(F)cc2c1Cl` [Compound 8a, (R)-2-(3-chloro-5,6-difluorobenzo[b]thiophene-2-carboxamido)-3-phenylpropanoic acid] displayed a half-maximal inhibitory concentration (IC50) of 70.7 ± 2.1 µM.
In turn, `O=C(N[C@@H](Cc1ccccc1)C(=O)O)c1sc2cc(Cl)ccc2c1Cl` [Compound 3b, (S)-2-(3,6-dichlorobenzo[b]thiophene-2-carboxamido)-3-phenylpropanoic acid] yielded an IC50 of 11.8 ± 2.5 µM.
Compound `O=C(N[C@H](Cc1ccc(O)cc1)C(=O)O)c1cc2ccccc2s1` [Compound 9a, (R)-2-(benzo[b]thiophene-2-carboxamido)-3-(4-hydroxyphenyl)propanoic acid] returned an IC50 of over 100 µM.
The same measure, in the same setting: the result for `O=C(N[C@@H](Cc1ccc(O)cc1)C(=O)O)c1cc2ccccc2s1` [Compound 9b] reads over 100 µM.
Same read-out and setting: in the case of `Cc1ccc2c(Cl)c(C(=O)N[C@@H](Cc3ccccc3)C(=O)O)sc2c1` [Compound 2b, (S)-2-(3-chloro-6-methylbenzo[b]thiophene-2-carboxamido)-3-phenylpropanoic acid] it was 31.7 ± 0.7 µM; in that of `COc1ccc2c(Cl)c(C(=O)N[C@H](Cc3ccccc3)C(=O)O)sc2c1` [Compound 6a, (R)-2-(3-chloro-6-methoxybenzo[b]thiophene-2-carboxamido)-3-phenylpropanoic acid], 36.7 ± 3.9 µM.
Still for that read-out and setting: in the case of `O=C(N[C@H](Cc1ccccc1)C(=O)O)c1cc2cc(F)ccc2s1` [Compound 10a, (R)-2-(5-fluorobenzo[b]thiophene-2-carboxamido)-3-phenylpropanoic acid] it was over 100 µM; in that of `O=C(N[C@H](Cc1ccc(O)cc1)C(=O)O)c1sc2cc(F)ccc2c1Cl` [Compound 7a, (R)-2-(3-chloro-6-fluorobenzo[b]thiophene-2-carboxamido)-3-(4-hydroxyphenyl)propanoic acid], 56.4 ± 5.2 µM.
In turn, `O=C(N[C@@H](Cc1ccc(O)cc1)C(=O)O)c1sc2cc(F)ccc2c1Cl` [Compound 7b, (S)-2-(3-chloro-6-fluorobenzo[b]thiophene-2-carboxamido)-3-(4-hydroxyphenyl)propanoic acid] returned an IC50 of 84.7 ± 2.4 µM.
Same read-out and setting: in the case of `COc1ccc2c(Cl)c(C(=O)N[C@@H](Cc3ccccc3)C(=O)O)sc2c1` [Compound 6b, (S)-2-(3-chloro-6-methoxybenzo[b]thiophene-2-carboxamido)-3-phenylpropanoic acid] it was over 100 µM.
Same read-out and setting: in the case of `O=C(N[C@H](Cc1ccccc1)C(=O)O)c1cc2ccc(F)cc2s1` [Compound 13a, (R)-2-(6-fluorobenzo[b]thiophene-2-carboxamido)-3-phenylpropanoic acid] it was over 100 µM.
For `O=C(N[C@H](Cc1ccccc1)C(=O)O)c1sc2cc(Cl)ccc2c1Cl` [Compound 3a, (R)-2-(3,6-dichlorobenzo[b]thiophene-2-carboxamido)-3-phenylpropanoic acid], the IC50 is 5.6 ± 0.32 µM.
On the same count and under the same terms, in the case of `O=C(N[C@@H](Cc1ccccc1)C(=O)O)c1sc2cc(C(F)(F)F)ccc2c1Cl` [Compound 5b, (S)-2-(3-chloro-6-(trifluoromethyl)benzo[b]thiophene-2-carboxamido)-3-phenylpropanoic acid] it was 19.8 ± 3.6 µM; in that of `O=C(N[C@@H](Cc1ccccc1)C(=O)O)c1sc2ccccc2c1Cl` [Compound 11b, (S)-2-(3-chlorobenzo[b]thiophene-2-carboxamido)-3-phenylpropanoic acid], over 100 µM.
On the same count and under the same terms, the result for `O=C(N[C@@H](Cc1ccccc1)C(=O)O)c1sc2cc(F)c(F)cc2c1Cl` [Compound 8b, (S)-2-(3-chloro-5,6-difluorobenzo[b]thiophene-2-carboxamido)-3-phenylpropanoic acid] reads 79.5 ± 3.4 µM; that for `O=C(N[C@@H](Cc1ccccc1)C(=O)O)c1cc2ccc(F)cc2s1` [Compound 13b, (S)-2-(6-fluorobenzo[b]thiophene-2-carboxamido)-3-phenylpropanoic acid], over 100 µM; that for `O=C(N[C@@H](Cc1ccccc1)C(=O)O)c1sc2cc(F)ccc2c1Cl` [Compound 4b, (S)-2-(3-chloro-6-fluorobenzo[b]thiophene-2-carboxamido)-3-phenylpropanoic acid], 21.9 ± 0.7 µM.
In the case of `O=C(N[C@H](Cc1ccccc1)C(=O)O)c1sc2ccccc2c1Cl` [Compound 11a, (R)-2-(3-chlorobenzo[b]thiophene-2-carboxamido)-3-phenylpropanoic acid], the IC50 was over 100 µM.
Same read-out and setting: in the case of `O=C(O)[C@@H](Cc1ccccc1)NS(=O)(=O)c1ccccc1F` [Compound T5260630, reference compound] it was 145 ± 4 µM; in that of `O=C(N[C@@H](Cc1ccccc1)C(=O)O)c1cc2ccccc2s1` [Compound 1b, (S)-2-(benzo[b]thiophene-2-carboxamido)-3-phenylpropanoic acid], over 155 µM.

Staying with this assay, now noted: whole cell inhibitory activity; second part of Table 1 (R5/R6 series).
In turn, `O=C(O)[C@H](Cc1ccc(O)cc1)NS(=O)(=O)c1ccc(F)cc1` [Compound 19b, (S)-2-(4-fluorophenylsulfonamido)-3-(4-hydroxyphenyl)propanoic acid] gave an IC50 of over 100 µM.
`O=C(O)[C@@H](Cc1ccccc1)NS(=O)(=O)c1cccc(F)c1` [Compound 15a, (R)-2-(3-fluorophenylsulfonamido)-3-phenylpropanoic acid] gave an IC50 of over 100 µM.
The same measure, in the same setting: the result for `O=C(O)[C@H](Cc1ccc(O)cc1)NS(=O)(=O)c1cccc(F)c1` [Compound 18b, (S)-2-(3-fluorophenylsulfonamido)-3-(4-hydroxyphenyl)propanoic acid] reads over 100 µM.
The same measure, in the same setting: in the case of `O=C(O)[C@H](Cc1ccccc1)NS(=O)(=O)c1ccccc1F` [Compound 14b, (S)-2-(2-fluorophenylsulfonamido)-3-phenylpropanoic acid] it was over 100 µM.
The same measure, in the same setting: the result for `O=C(O)[C@H](Cc1ccc(O)cc1)NS(=O)(=O)c1ccccc1F` [Compound 17b, (S)-2-(2-fluorophenylsulfonamido)-3-(4-hyroxyphenyl)propanoic acid] reads over 100 µM; that for `O=C(O)[C@@H](Cc1ccc(O)cc1)NS(=O)(=O)c1cccc(F)c1` [Compound 18a, (R)-2-(3-fluorophenylsulfonamido)-3-(4-hydroxyphenyl)propanoic acid], over 100 µM.
Consider `O=C(O)[C@@H](Cc1ccc(O)cc1)NS(=O)(=O)c1ccccc1F` [Compound 17a, (R)-2-(2-fluorophenylsulfonamido)-3-(4-hydroxyphenyl)propanoic acid], for which the IC50 was over 100 µM.
On the same count and under the same terms, the result for `O=C(O)[C@@H](Cc1ccccc1)NS(=O)(=O)c1ccc(F)cc1` [Compound 16a, (R)-2-(4-fluorophenylsulfonamido)-3-phenylpropanoic acid] reads over 100 µM; that for `O=C(O)[C@@H](Cc1ccc(O)cc1)NS(=O)(=O)c1ccc(F)cc1` [Compound 19a, (R)-2-(4-fluorophenylsulfonamido)-3-(4-hydroxyphenyl)propanoic acid], over 100 µM; that for `O=C(O)[C@H](Cc1ccccc1)NS(=O)(=O)c1cccc(F)c1` [Compound 15b, (S)-2-(3-fluorophenylsulfonamido)-3-phenylpropanoic acid], over 100 µM.
